The values that follow come from patent US20260176289A1, “SMALL MOLECULE INHIBITORS OF KRAS PROTEINS” (Merck Sharp & Dohme LLC, priority 2022, published 2026).

As usually defined, the IC50 is the concentration that inhibits the measured activity by half.

In one experiment the target is KRAS-G12V (Homo sapiens, UniProt P01116, G12V). As to the kind of experiment: SOS-catalyzed nucleotide exchange assay (Procedure A, TR-FRET), KRAS-G12V. It counts as biochemical. From the text: (§1) Procedure for SOS-Catalyzed Nucleotide Exchange Assay for KRAS-WT, G12C/D/V, G13D, HRAS, and NRAS (Procedure A)
Sequence of KRAS-G12V (P01116 with tags, fused parts or gaps isoform P01116-2 G12V): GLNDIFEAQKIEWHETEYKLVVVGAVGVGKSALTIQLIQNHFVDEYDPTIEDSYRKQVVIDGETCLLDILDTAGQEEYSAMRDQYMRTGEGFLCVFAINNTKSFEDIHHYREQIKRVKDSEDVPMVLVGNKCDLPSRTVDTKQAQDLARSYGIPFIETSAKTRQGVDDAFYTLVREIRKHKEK
(§2) Recombinant KRAS-G12C protein used in this assay has an additional triple mutation (C51S/C80L/C118S). Whereas KRAS-WT, G12D/V, G13D, HRAS and NRAS are in context of their WT protein sequence background. Specifically, the SOS-catalyzed nucleotide exchange assay utilizes a preformed TR-FRET complex containing a specific biotinylated RAS protein (KRAS-WT, G12C/V/D, G13D, HRAS, NRAS; described above) with Bodipy-GDP, and Terbium-streptavidin. Compounds are preincubated with this complex for 60 minutes. Subsequently, recombinant human SOS protein and unlabeled GTP are added to initiate the exchange reaction. Small molecule inhibitors stabilize the Bodipy-GDP complex whereas the untreated protein rapidly exchanges Bodipy-GDP for unlabeled GTP resulting in reduced TR-FRET signal.
(§3) To assemble the preformed TR-FRET complexes, each biotinylated RAS protein is diluted to 2 μM in an EDTA Buffer (20 mM HEPES pH 7.5, 50 mM sodium chloride, 10 mM EDTA, and 0.01% Tween) and incubated at room temperature for one hour. This mixture is then further diluted to 90 nM in an Assay Buffer (20 mM HEPES pH 7.5, 150 mM sodium chloride, 10 mM magnesium chloride, and 0.005% Tween) containing 15 nM of Terbium-Streptavidin (Invitrogen, catalog #PV3577) and 900 nM of Bodipy-GDP (Invitrogen, catalog #G22360) and incubated at room temperature for six hours. It should be noted that this preformed TR-FRET complex for each of the RAS protein were made ahead of time, aliquoted and stored at −80° C. until the day of the experiment.
(§4) Each test compound (10 mM stock in DMSO) is diluted in DMSO to make a final-10-point, 3-fold dilution and is acoustically dispensed into a 384-well assay plate (Corning, catalog #3820) using an Echo 550 (Labcyte). Each well of the assay plate receives 3 μL of a specific 3×RAS preformed TR-FRET complex and 3 μL of Assay Buffer and is incubated at room temperature for 60 minutes (preincubation time). Each well then receives 3 μL of 3×recombinant human SOS protein and GTP (Sigma, G8877) in Assay Buffer and is incubated at room temperature for 30 minutes (G13D), 60 minutes (KRAS WT/G12C/D, H/NRAS) or 90 minutes for G12V. The final reaction in each well of 9 μL consists of 3 mM GTP, specific Ras and SOS proteins in the following concentrations: KRAS-G12C/SOS=3 nM/40 nM, KRAS-WT and G12D/SOS=1 nM/40 nM, KRAS-G12V/SOS=1.25 nM/160 nM. KRAS-G13D/SOS=1.25 nM/0 nM, HRAS and NRAS=1.25 nM/40 nM.
(§5) The time-resolved fluorescence resonance energy transfer (TR-FRET) signal is measured on an Envision (PerkinElmer) plate reader: Excitation filter=340 nm; emission 1=495 nm; emission2=520 nm; dichroic mirror=D400/D505; delay time=[…]. The signal of each well is determined as the ratio of the emission at 520 nm to that at 495 nm. Percent effect of each well is determined after normalization to control wells containing DMSO (no effect) or a saturating concentration of inhibitor (max effect). The apparent effect as a function of compound concentration is fit to a four-parameter logistic equation.

Another experiment has as its target KRAS-WT (Homo sapiens, UniProt P01116). Nature of the experiment: SOS-catalyzed nucleotide exchange assay (Procedure A, TR-FRET), KRAS-WT. Format: biochemical. As to conditions: nucleotide exchange, read-out: KRAS WT GNE IC50.
Excerpt: as §1, §2, §3, §4, §5

For another experiment, the target named is KRAS-G12D (Homo sapiens, UniProt P01116, G12D). Nature of the experiment: SOS-catalyzed nucleotide exchange assay (Procedure A, TR-FRET), KRAS-G12D. Format: biochemical.
Sequence of KRAS-G12D (P01116 with tags, fused parts or gaps isoform P01116-2 G12D): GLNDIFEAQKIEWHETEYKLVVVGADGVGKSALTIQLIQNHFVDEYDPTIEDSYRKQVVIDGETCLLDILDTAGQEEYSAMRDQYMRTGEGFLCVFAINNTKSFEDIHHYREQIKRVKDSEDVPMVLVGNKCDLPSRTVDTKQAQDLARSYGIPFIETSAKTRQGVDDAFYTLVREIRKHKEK
Excerpt: as §1, §2, §3, §4, §5

In another experiment the test system is AsPC-1 cells. As to the kind of experiment: Cellular phospho-ERK assay, AsPC-1 cells (homozygous KRAS-G12D). Format: cell-based. As to conditions: Homo sapiens, read-out: AsPC1 pERK IC50. Here is the method:
Procedure for Cellular Phospho-ERK Assay in KRAS Wild Type and Mutant (G12D, G12V) Cell Lines
MKN-1 cells (JCRB JCRB0252) containing amplified wild-type KRAS, were cultured in growth medium that contains RPMI 1640-GlutaMAX™-I (ThermoFisher Scientific 61870) containing 10% heat inactivated fetal bovine serum (ThermoFisher Scientific 10091148), 1 mM sodium pyruvate and 10 mM HEPES. PANC08.13 cells (ATCC® CRL-2551™), containing homozygous KRAS-G12D activating mutation, were cultured in growth medium made of RPMI1640-GlutaMAX™-I (ThermoFisher Scientific 61870) containing 15% heat inactivated fetal bovine serum (ThermoFisher Scientific 10091148)). AsPC-1 cells (ATCC® CRL-1682™), containing homozygous KRAS-G12D activating mutation, were cultured in T150 flask in growth medium (RPMI medium 1640-GlutaMAX™-I (ThermoFisher Scientific 61870) containing 10% fetal bovine serum (ThermoFisher Scientific 10091148)). SW620 cells (ATCC® […]), containing homozygous KRAS-G12V activating mutation, were cultured in growth medium that contains RPMI 1640-GlutaMAX™-I (ThermoFisher Scientific 61870) containing 10% heat inactivated fetal bovine serum (ThermoFisher Scientific 10091148).
Cells for the assay were harvested in growth medium after TrypLE (ThermoFisher scientific 12604021) digestion and were seeded in a 384-well collagen coated cell culture plate (Corning 356702) at a density of 10,000-15,000 cells/20 μL/well, and incubated at 37° C., 5% CO2 overnight. The compound (with 10 mM stock concentration) dose-response titrations were prepared [30 μM final ERK detection assay concentration and 1:3 dilutions, 10-point dose response] and appropriate amounts (270 nL) of test compounds were dispensed in a 384-well intermediate plate using an Echo 550 liquid handler. 30 μL/well of RPMI medium 1640-GlutaMAX™—I was added to the intermediate plate and the contents of the intermediate plate (10 μL/well) were then transferred to the 384-well collagen coated cell culture plate, which was incubated at 37° C., 5% CO2 for 2 hours. After removal of medium from the collagen coated cell culture plate, cells were lysed in lysis buffer from Alpha SureFire® Ultra™ Multiplex p-ERK and total ERK assay kit (PerkinElmer MPSU-PTERK) containing Halt™ Protease and Phosphatase inhibitor cocktail (ThermoFisher Scientific 78446) at room temperature with constant shaking at 300 rpm for 30 minutes. The cell lysates were then transferred to an OptiPlate-384 plate (PerkinElmer 6005620), and the phosphorylation of ERK (p-ERK) and total ERK levels were detected by Alpha SureFire® Ultra™ Multiplex p-EEK kit and total ERK assay kit (PerkinElmer MPSU-PTERK) following the manufacturer's protocol. Assay plates were read on a En Vision Multimode Plate Reader (PerkinElmer), and the ratio of p-ERK vs. total ERK in each well was used as the final readout. Dose response curves were analyzed using a 4-parameter logistic model to calculate IC50 values using Spotfire software.

Setting [1] is: nucleotide exchange, read-out: KRAS G12V GNE IC50.
Where [2] appears, read: nucleotide exchange, read-out: KRAS G12D GNE IC50.
Where [3] appears, read: ASPC1, 2 h, 2 hours compound incubation.

Like-named read-outs stand apart in the source and are kept apart here.

Sequence of KRAS-WT (P01116 with tags, fused parts or gaps isoform P01116-2): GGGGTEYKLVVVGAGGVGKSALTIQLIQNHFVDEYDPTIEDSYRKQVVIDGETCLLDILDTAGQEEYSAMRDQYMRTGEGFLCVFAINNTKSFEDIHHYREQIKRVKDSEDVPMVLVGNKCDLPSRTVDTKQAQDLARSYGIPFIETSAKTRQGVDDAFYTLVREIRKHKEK

Turning to `C[C@@]1(O)COCCN(c2nc(OC[C@]3(CN4[C@@H]5CC[C@H]4C[C@@H](F)C5)CC3(F)F)nc3sc4c(-c5c(C6(F)CC6)c(Cl)cc6[nH]ncc56)nccc4c23)C1` [Ex-242, (6S)-4-(8-(6-chloro-5-(1-fluorocyclopropyl)-1H-indazol-4-yl)-2-(((R)-2,2-difluoro-1-(((1R,3R,5S)-3-fluoro-8-azabicyclo[3.2.1]octan-8-yl)methyl)cyclopropyl)metho-xy)pyrido[4′,3′:4,5]thieno[2,3-d]pyrimidin-4-yl)-6-methyl-1,4-oxazepan-6-ol], the concentration for half-maximal inhibition (IC50) amounted to 0.348 µM on KRAS-G12V (setting [1]), 0.694 µM at KRAS-WT, 0.0907 µM at KRAS-G12D (setting [2]) and 1.15 µM with AsPC-1 cells (setting [3]).
The matching figures for `Cc1cc2[nH]ncc2c(-c2nccc3c2sc2nc(OC[C@@]45CCCN4C[C@H](F)C5)nc(N4CCC[C@]5(CCO5)C4)c23)c1C(F)(F)F` [Ex-200]: 0.0929 µM, 0.474 µM, 0.141 µM and 0.613 µM.
For `CC1=CCc2cc3[nH]ncc3c(-c3nccc4c3sc3nc(OC[C@@]56CCCN5C[C@H](F)C6)nc(N5CCOC[C@@](C)(O)C5)c34)c21` [Ex-106, (6S)-4-(2-(((2R,7aS)-2-fluorotetrahydro-1H-pyrrolizin-7a(5H)-yl)methoxy)-8-(5-methyl-1,7-dihydrocyclopenta[f]inda-zol-4-yl)pyrido[4′,3′:4,5]thieno [2,3-d]pyrimidin-4-yl)-6-methyl-1,4-oxazepan-6-ol], the IC50 was found to be 0.0306 µM on KRAS-G12V (setting [1]); 0.0551 µM at KRAS-WT; 0.0197 µM on KRAS-G12D (setting [2]); 0.128 µM with AsPC-1 cells (ASPC1, 2 h, KRAS-G12D, 2 hours).
The like results for `Cc1cc2[nH]ncc2c(-c2nc(-c3ccoc3)cc3c2sc2nc(OC[C@@]45CCCN4C[C@H](F)C5)nc(N4CCOC[C@@](C)(O)C4)c23)c1C(F)(F)F` [Ex-29, (6S)-4-(2-(((2R,7aS)-2-fluorotetrahydro-1H-pyrrolizin-7a(5H)-yl)methoxy)-6-(furan-3-yl)-8-(6-methyl-5-(trifluoromethyl)-1H-indazol-4-yl)pyrido[4′,3′:4,5]thieno[2,3-d]pyrimidin-4-yl)-6-methyl-1,4-oxazepan-6-ol] were, in that order, 0.143 µM, 0.852 µM, 0.251 µM and 1.53 µM.
Regarding `C[C@@]1(O)COCCN(c2nc(OC[C@@]34CCCN3C[C@H](F)C4)nc3sc4c(-c5c6c(cc7[nH]ncc57)C5CC5C6)nccc4c23)C1` (stereo partly drawn) [Ex-91, (6S)-4-(2-(((2R,7aS)-2-fluorotetrahydro-1H-pyrrolizin-7a(5H)-yl)methoxy)-8-(5,5a,6,6a-tetrahydro-1H-cyclopropa[3,4]cyclopen-ta[1,2-f]indazol-4-yl)pyrido[4′,3′:4,5]thieno [2,3-d]pyrimidin-4-yl)-6-methyl-1,4-oxazepan-6-ol], the half-inhibitory concentration (IC50) is 0.103 µM on KRAS-G12V (setting [1]); 0.129 µM at KRAS-WT; 0.065 µM on KRAS-G12D (setting [2]); 0.399 µM with AsPC-1 cells (ASPC1, 2 h, KRAS-G12D, 2 hours).
For the compound `C=C1CN2C[C@@H](OC)C[C@@]2(COc2nc(N3CCOC[C@@](C)(O)C3)c3c(n2)sc2c(-c4c(C5CC5)c(Cl)cc5[nH]ncc45)nccc23)C1` [Ex-227, (6S)-4-(8-(6-chloro-5-cyclopropyl-1H-indazol-4-yl)-2-(((25,7aR)-2-meth-oxy-6-methylene-tetrahydro-1H-pyrrolizin-7a(5H)-yl)methoxy)pyrido [4′,3′:4,5]thieno[2,3-d]pyrimidin-4-yl)-6-methyl-1,4-oxaze-pan-6-ol], the IC50 stood at 0.0219 µM on KRAS-G12V (setting [1]), 0.0185 µM on KRAS-WT, 0.00656 µM at KRAS-G12D (setting [2]) and 0.175 µM in the experiment on AsPC-1 cells (setting [3]).
The like results for `C[C@@]1(O)COCCN(c2nc(OC[C@]3(CN4[C@@H]5CC[C@H]4C[C@H](F)C5)CC3(F)F)nc3sc4c(-c5c(C6(F)CC6)c(Cl)cc6[nH]ncc56)nccc4c23)C1` [Ex-251, (6S)-4-(8-(6-chloro-5-(1-fluorocyclopropyl)-1H-indazol-4-yl)-2-(((R)-2,2-difluoro-1-(((1R,3S,5S)-3-fluoro-8-azabicyclo[3.2.1]octan-8-yl)methyl)cyclopropyl)metho-xy)pyrido[4′,3′:4,5]thieno[2,3-d]pyrimidin-4-yl)-6-methyl-1,4-oxazepan-6-ol] were, in that order, 0.11 µM, 0.489 µM, 0.053 µM and 0.67 µM.
Regarding `C[C@@]1(O)COCCN(c2nc(OC[C@@]34CCCN3C[C@H](F)C4)nc3sc4c(-c5cccc(Cl)c5[Si](C)(C)C)nccc4c23)C1` [Ex-123, (S)-4-(8-(3-chloro-2-(trimethylsilyl)phenyl)-2-(((2R,7aS)-2-fluorotetrahydro-1H-pyrrolizin-7a(5H)-yl)methoxy)pyri-do[4′,3′:4,5]thieno[2,3-d]pyrimidin-4-yl)-6-methyl-1,4-oxazepan-6-ol], the concentration for half-maximal inhibition (IC50) at KRAS-G12V (KRAS G12V GNE IC50, nucleotide exchange) was 0.157 µM; on KRAS-WT, 0.434 µM; at KRAS-G12D (KRAS G12D GNE IC50, nucleotide exchange), 0.173 µM; in the experiment on AsPC-1 cells (ASPC1, KRAS-G12D, 2 hours) it was 2.06 µM.
